Experimental findings from the Biogen ADME set (Fang et al. 2023) are described below.

Molecules are shown by their SMILES. Converted amounts (≈) assume the structure as drawn.

In general, aqueous solubility refers to how much of the substance goes into solution per volume.

For the data set the following is noted: for aqueous solubility: pH 6.8.

Take `Cc1cc(NC(=O)c2cccs2)no1`: the MDR1-MDCK efflux ratio turned out to be 0.617; the intrinsic clearance, human liver microsomes was found to be 39.6 mL/min/kg; the intrinsic clearance, rat liver microsomes was 793 mL/min/kg; the aqueous solubility is 31.6 µg/mL (≈ 152 µM).

Compound `Cc1cccc(NC(=O)c2cncn2-c2ccccc2)n1` came in with an intrinsic clearance, human liver microsomes of 45.2 mL/min/kg and an intrinsic clearance, rat liver microsomes of 165 mL/min/kg.

The compound `CCOc1ccc(CC(=O)N2CCC3(CC2)Nc2cc(C)ccc2-n2cccc23)cc1OCC` had an intrinsic clearance, human liver microsomes of 187 mL/min/kg and an intrinsic clearance, rat liver microsomes of 956 mL/min/kg.

Compound `Cc1ccc(NC(=O)c2cc(-c3ccccn3)nc3ccccc23)nc1` returned an aqueous solubility of 0.18 µg/mL (≈ 0.529 µM).

The compound `CN(Cc1cnccn1)C(=O)c1cc(-c2ccc(F)cc2)on1` registered an aqueous solubility of 16 µg/mL (≈ 51.2 µM).

`O=c1c2c(Cl)ccc(Cl)c2ncn1Cc1cc(O)ncn1` showed an intrinsic clearance, human liver microsomes of at most 4.74 mL/min/kg and an intrinsic clearance, rat liver microsomes of at most 10.7 mL/min/kg.

With `Cc1nc(COc2ccc(F)cc2)sc1C(=O)N1CCC(C)CC1`, the MDR1-MDCK efflux ratio is 0.543; the intrinsic clearance, human liver microsomes stood at 90.2 mL/min/kg; the intrinsic clearance, rat liver microsomes stood at 2510 mL/min/kg; the aqueous solubility is 47.4 µg/mL (≈ 136 µM).

Regarding `Cc1cc(NCc2ccnc(N3CCCC3)c2)c2ccccc2n1`, the MDR1-MDCK efflux ratio was 17; the intrinsic clearance, human liver microsomes worked out at 23.8 mL/min/kg; the intrinsic clearance, rat liver microsomes was found to be 5470 mL/min/kg; the aqueous solubility came to 32.2 µg/mL (≈ 101 µM).

As for `O=C(c1ccc(Cl)cc1)N1CCC(c2nnc3n2CCCC3)CC1`, the MDR1-MDCK efflux ratio was 128; the intrinsic clearance, human liver microsomes is at most 4.74 mL/min/kg; the intrinsic clearance, rat liver microsomes is at most 10.7 mL/min/kg.

`CC(C)NC(=O)N1CC[C@H](NC2=Nc3cc(F)ccc3N(CC(F)F)c3ccc(Cl)cc32)C1`: the MDR1-MDCK efflux ratio stood at 23.6; the intrinsic clearance, human liver microsomes came to 180 mL/min/kg; the intrinsic clearance, rat liver microsomes came out at 783 mL/min/kg; the aqueous solubility was 28 µg/mL (≈ 58.3 µM).

As for `O=C1CCCN1c1ccc(CN2CCC(c3noc4cc(F)ccc34)CC2)cc1`, the MDR1-MDCK efflux ratio was 0.963; the intrinsic clearance, human liver microsomes was found to be 26.7 mL/min/kg; the intrinsic clearance, rat liver microsomes was 109 mL/min/kg; the aqueous solubility was 58.6 µg/mL (≈ 149 µM).

Consider `CC(=O)NC1(c2ccc(F)cc2)CCN(Cc2ccc(OC3CCCC3)cc2)CC1`, for which the intrinsic clearance, human liver microsomes is 24.8 mL/min/kg; the intrinsic clearance, rat liver microsomes came to 346 mL/min/kg; the aqueous solubility stood at 72.4 µg/mL (≈ 176 µM).

Take `O=C(c1ccc2c(c1)OCO2)N1CCC(c2n[nH]c(C3CC3)n2)CC1`: the MDR1-MDCK efflux ratio stood at 62.7; the intrinsic clearance, human liver microsomes was at most 4.74 mL/min/kg; the intrinsic clearance, rat liver microsomes was 44.6 mL/min/kg; the aqueous solubility was 27 µg/mL (≈ 79.4 µM).

In turn, `O=C1NC2(CCC2)C(=O)N1Cc1ccon1` yielded an intrinsic clearance, human liver microsomes of at most 4.74 mL/min/kg and an intrinsic clearance, rat liver microsomes of at most 10.7 mL/min/kg.

With `CCOC(=O)c1cccnc1SCc1cccnc1`, the MDR1-MDCK efflux ratio was found to be 0.646; the intrinsic clearance, human liver microsomes was 293 mL/min/kg; the intrinsic clearance, rat liver microsomes turned out to be 1260 mL/min/kg.

Consider `CC(C)(C)C(=O)N1CCC(CN2C(=O)C(=O)N(C3CCCC3)C2=O)CC1`, for which the MDR1-MDCK efflux ratio was 2.03; the intrinsic clearance, human liver microsomes stood at 22.1 mL/min/kg; the intrinsic clearance, rat liver microsomes stood at 288 mL/min/kg; the aqueous solubility turned out to be 66.8 µg/mL (≈ 184 µM).

On to `Cc1sc2ncn(Cc3c(F)cccc3Cl)c(=O)c2c1C`, for which the intrinsic clearance, human liver microsomes was 80 mL/min/kg and the intrinsic clearance, rat liver microsomes came out at 757 mL/min/kg.

`Cc1cccc(N(C)C(=O)COC2CCCC2)n1`: the MDR1-MDCK efflux ratio worked out at 0.667; the intrinsic clearance, human liver microsomes stood at 44.8 mL/min/kg; the intrinsic clearance, rat liver microsomes came out at 200 mL/min/kg; the aqueous solubility came to 59.6 µg/mL (≈ 240 µM).

`N#Cc1cccc(NC(=O)C2CCC2)c1` showed an aqueous solubility of 33.8 µg/mL (≈ 169 µM).

With `Cc1ccc(Cn2nc(C)c(C(N)=O)c2Cl)cc1`, the MDR1-MDCK efflux ratio stood at 0.663; the intrinsic clearance, human liver microsomes was determined as 7.25 mL/min/kg; the intrinsic clearance, rat liver microsomes is 358 mL/min/kg; the aqueous solubility was 24.4 µg/mL (≈ 92.6 µM).

On to `O=C(Nc1ccccc1)c1sc(N2CCOCC2)nc1-c1ccccc1`, for which the MDR1-MDCK efflux ratio came to 0.494 and the aqueous solubility turned out to be 0.26 µg/mL (≈ 0.711 µM).

For the compound `O=c1ccc(C2CC2)nn1CC1CN(CC2(O)CCCC2)C1`, the MDR1-MDCK efflux ratio was 12.5; the intrinsic clearance, human liver microsomes is at most 4.74 mL/min/kg; the intrinsic clearance, rat liver microsomes stood at 84 mL/min/kg; the aqueous solubility was 52.6 µg/mL (≈ 173 µM).

Consider `COC(=O)N1CC(NCc2c(C)nn(C(C)(C)C)c2C)C1`, for which the MDR1-MDCK efflux ratio is 1.79; the intrinsic clearance, human liver microsomes was at most 4.74 mL/min/kg; the intrinsic clearance, rat liver microsomes came to 61.2 mL/min/kg.

As for `N#Cc1cccc(-c2ccc(=O)n3c2[C@@H]2C[C@@H](CN(Cc4cccs4)C2)C3)c1`, the MDR1-MDCK efflux ratio was 7.04; the intrinsic clearance, human liver microsomes was determined as 396 mL/min/kg; the intrinsic clearance, rat liver microsomes turned out to be 2000 mL/min/kg; the aqueous solubility worked out at 48.9 µg/mL (≈ 126 µM).

As to `C=CC(=O)Nc1cccc(Oc2nc(Nc3ccc(N4CCN(C)CC4)c(F)c3)nc3[nH]ccc23)c1`, the MDR1-MDCK efflux ratio is 50.6; the fraction unbound, human plasma stood at 0.0109; the fraction unbound, rat plasma is 0.00726; the intrinsic clearance, human liver microsomes is 26.8 mL/min/kg. For the same compound, the intrinsic clearance, rat liver microsomes was found to be 344 mL/min/kg.

`Brc1cnc(N2CCCN(c3ccccc3)CC2)nc1`: the intrinsic clearance, human liver microsomes was determined as 121 mL/min/kg and the intrinsic clearance, rat liver microsomes came to 5670 mL/min/kg.

On to `Fc1cc(-c2noc(C3CCN(C4CC4)CC3)n2)cc(F)c1F`, for which the intrinsic clearance, human liver microsomes was found to be 75 mL/min/kg and the intrinsic clearance, rat liver microsomes is 591 mL/min/kg.

As to `O=c1c2cccnc2ncn1[C@H]1CCCc2ccccc21`, the MDR1-MDCK efflux ratio was found to be 0.837; the intrinsic clearance, human liver microsomes was at most 4.74 mL/min/kg; the intrinsic clearance, rat liver microsomes is 119 mL/min/kg.

Regarding `COc1ccc(-n2c(Cn3cnc(C#N)n3)nc3ccccc32)cc1`, the MDR1-MDCK efflux ratio stood at 1.37; the intrinsic clearance, human liver microsomes amounted to 5 mL/min/kg; the intrinsic clearance, rat liver microsomes amounted to 664 mL/min/kg; the aqueous solubility was found to be 36 µg/mL (≈ 109 µM).

Consider `Cn1ccnc1CN1CCN(Cc2ccc(F)cc2C#N)CC1`, for which the MDR1-MDCK efflux ratio is 6.3; the intrinsic clearance, human liver microsomes was at most 4.74 mL/min/kg; the intrinsic clearance, rat liver microsomes stood at 446 mL/min/kg; the aqueous solubility was found to be 43.9 µg/mL (≈ 140 µM).

For the compound `CCn1ncc(CN2CCC(c3nc(N(C)C)ncc3-c3ccc(OC)cc3)CC2)c1C`, the MDR1-MDCK efflux ratio turned out to be 15.6; the intrinsic clearance, human liver microsomes turned out to be 227 mL/min/kg; the intrinsic clearance, rat liver microsomes is 831 mL/min/kg; the aqueous solubility was 52.6 µg/mL (≈ 121 µM).

`O=C(C1CC1c1ccc(F)cc1)N1CCC(n2c(=O)[nH]c3ccccc32)CC1` (stereo unspecified): the intrinsic clearance, human liver microsomes is 14.7 mL/min/kg; the intrinsic clearance, rat liver microsomes was 233 mL/min/kg; the aqueous solubility is 47.8 µg/mL (≈ 126 µM).

As to `COc1cc(-c2cnc(NC3CC3)nc2-c2cccs2)nc(OC)n1`, the intrinsic clearance, human liver microsomes stood at 34.7 mL/min/kg and the intrinsic clearance, rat liver microsomes was 485 mL/min/kg.

With `Cc1sc2nc(CN3CCCC3)nc(N)c2c1C`, the MDR1-MDCK efflux ratio was 17.6; the intrinsic clearance, human liver microsomes is at most 4.74 mL/min/kg; the intrinsic clearance, rat liver microsomes was found to be 2760 mL/min/kg; the aqueous solubility is 44.6 µg/mL (≈ 170 µM).

The compound `COCc1ncc(CN2CCC(Oc3cccc(C)c3)CC2)cn1` yielded an intrinsic clearance, human liver microsomes of 10.2 mL/min/kg and an intrinsic clearance, rat liver microsomes of 131 mL/min/kg.

With `Cc1ccc(CNC/C=C/c2ccccc2)cn1`, the MDR1-MDCK efflux ratio amounted to 0.387; the intrinsic clearance, human liver microsomes worked out at 28.5 mL/min/kg; the intrinsic clearance, rat liver microsomes is 410 mL/min/kg; the aqueous solubility was found to be 29.1 µg/mL (≈ 122 µM).

On to `CCc1ccccc1NC(=O)CCn1ccnc1-c1ccc2c(c1)OCO2`, for which the MDR1-MDCK efflux ratio was found to be 22.1; the intrinsic clearance, human liver microsomes is 126 mL/min/kg; the intrinsic clearance, rat liver microsomes is 891 mL/min/kg; the aqueous solubility was 42 µg/mL (≈ 116 µM).

Take `O=c1[nH]c2ccccc2n1C1CCN(Cc2coc(-c3cccs3)n2)CC1`: the intrinsic clearance, human liver microsomes was 29.4 mL/min/kg and the intrinsic clearance, rat liver microsomes is 475 mL/min/kg.

In the case of `Cc1ccc(OC[C@@H](O)[C@H](C)NC(C)C)c2c1CCC2`, the MDR1-MDCK efflux ratio was 1.38; the intrinsic clearance, human liver microsomes was found to be 124 mL/min/kg; the intrinsic clearance, rat liver microsomes was 3140 mL/min/kg.

On to `CC(C)(C)CC(=O)N1CCC(OCCCN)CC1`, for which the MDR1-MDCK efflux ratio was determined as 8.05; the intrinsic clearance, human liver microsomes is at most 4.74 mL/min/kg; the intrinsic clearance, rat liver microsomes was at most 10.7 mL/min/kg; the aqueous solubility was determined as 50.6 µg/mL (≈ 198 µM).

`CC(C)c1noc(-c2ccc(N)cc2)n1` had an intrinsic clearance, human liver microsomes of 47.1 mL/min/kg and an intrinsic clearance, rat liver microsomes of 158 mL/min/kg.

With `CC(C)(C)c1cc(NS(=O)(=O)c2c(Cl)cccc2Cl)cc(C(C)(C)C)c1`, the intrinsic clearance, human liver microsomes came to 89.6 mL/min/kg and the intrinsic clearance, rat liver microsomes worked out at 1030 mL/min/kg.

`Cc1cc(NC(=O)CN(C)c2c(F)cccc2F)on1` came in with an aqueous solubility of 69.4 µg/mL (≈ 247 µM).

Take `Cn1cc(C(=O)N2CCC(CC(=O)O)CC2)cn1`: the intrinsic clearance, human liver microsomes was at most 4.74 mL/min/kg; the intrinsic clearance, rat liver microsomes was at most 10.7 mL/min/kg; the aqueous solubility was 57.3 µg/mL (≈ 228 µM).

For `O=C(CN1CCCC(c2cccc(-c3cccc(Cl)c3)n2)C1)N1CCCC1` (stereo unspecified), the MDR1-MDCK efflux ratio came out at 2.16; the intrinsic clearance, human liver microsomes is 51.4 mL/min/kg; the intrinsic clearance, rat liver microsomes is 419 mL/min/kg; the aqueous solubility was 54.8 µg/mL (≈ 143 µM).

For `Cc1nn(CCNS(=O)(=O)N2CCOCC2)c(C)c1C`, the MDR1-MDCK efflux ratio came to 8.58; the intrinsic clearance, human liver microsomes is 6.58 mL/min/kg; the intrinsic clearance, rat liver microsomes was found to be 265 mL/min/kg.

In the case of `Cc1nn(C)c(C)c1CNc1ccc(N2CCN(C)CC2)nc1`, the intrinsic clearance, human liver microsomes is at most 4.74 mL/min/kg and the intrinsic clearance, rat liver microsomes is at most 10.7 mL/min/kg.

On to `Cc1ccc(N2CCN(C(=O)c3c(C)nc4sccn34)CC2=O)cc1`, for which the MDR1-MDCK efflux ratio is 6.72; the intrinsic clearance, human liver microsomes is at most 4.74 mL/min/kg; the intrinsic clearance, rat liver microsomes came to 32.3 mL/min/kg; the aqueous solubility turned out to be 61.6 µg/mL (≈ 174 µM).

`O=C(NO)c1cnc(NC2(c3ccccc3)CC2)nc1` returned an intrinsic clearance, human liver microsomes of at most 4.74 mL/min/kg and an intrinsic clearance, rat liver microsomes of 17.4 mL/min/kg.
